# Where two headings read alike, the source gives them in different places.
# Molecular target: T1, F508delCFTR (Homo sapiens, UniProt P13569, DEL508-508)
# T1 construct: expressed in transfected cells; host or cells: CFBE41o- (human lung derived epithelial cell line), doxycycline-inducible expression
# Test: Cell Surface Expression-Horse Radish Peroxidase (CSE-HRP) assay
# Assay type: cell-based
# Conditions: CFBE41o-F508delCFTR-HRP cells; for Maximum % activity (with co-corrector): with co-corrector (2 μM); for Maximum % activity (with co-corrector) / Maximum % activity (without co-corrector): normalized to on-plate positive control, highest concentration 20 μM
# How it was run: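 CFBE41o- cells expressed F508delCFTR with HRP in the fourth exofacial loop, induced by 0.5 μg/mL doxycycline for 72 h at 37 °C. Compounds alone or with 2 μM co-corrector ran 18–24 h at 33 °C, 8-point 3-fold from 20 μM. Washed-cell luminol luminescence was normalized to DMSO and positive control, fitted sigmoidally for EC50 (three plates).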
# [1] = test compound without co-corrector, 18-24 hours at 33° C., read-out: EC50 (without co-corrector)
# [2] = with co-corrector (2 μM of 3-[(2R,4R)-4-({[1-(2,2-difluoro-1,3-benzodioxol-5-yl)cyclopropyl]carbonyl}amino)-7-methoxy-3,4-dihydro-2H-chromen-2-yl]benzoic acid), read-out: EC50 (with co-corrector)
# T1 sequence (P13569 with tags, fused parts or gaps DEL508-508): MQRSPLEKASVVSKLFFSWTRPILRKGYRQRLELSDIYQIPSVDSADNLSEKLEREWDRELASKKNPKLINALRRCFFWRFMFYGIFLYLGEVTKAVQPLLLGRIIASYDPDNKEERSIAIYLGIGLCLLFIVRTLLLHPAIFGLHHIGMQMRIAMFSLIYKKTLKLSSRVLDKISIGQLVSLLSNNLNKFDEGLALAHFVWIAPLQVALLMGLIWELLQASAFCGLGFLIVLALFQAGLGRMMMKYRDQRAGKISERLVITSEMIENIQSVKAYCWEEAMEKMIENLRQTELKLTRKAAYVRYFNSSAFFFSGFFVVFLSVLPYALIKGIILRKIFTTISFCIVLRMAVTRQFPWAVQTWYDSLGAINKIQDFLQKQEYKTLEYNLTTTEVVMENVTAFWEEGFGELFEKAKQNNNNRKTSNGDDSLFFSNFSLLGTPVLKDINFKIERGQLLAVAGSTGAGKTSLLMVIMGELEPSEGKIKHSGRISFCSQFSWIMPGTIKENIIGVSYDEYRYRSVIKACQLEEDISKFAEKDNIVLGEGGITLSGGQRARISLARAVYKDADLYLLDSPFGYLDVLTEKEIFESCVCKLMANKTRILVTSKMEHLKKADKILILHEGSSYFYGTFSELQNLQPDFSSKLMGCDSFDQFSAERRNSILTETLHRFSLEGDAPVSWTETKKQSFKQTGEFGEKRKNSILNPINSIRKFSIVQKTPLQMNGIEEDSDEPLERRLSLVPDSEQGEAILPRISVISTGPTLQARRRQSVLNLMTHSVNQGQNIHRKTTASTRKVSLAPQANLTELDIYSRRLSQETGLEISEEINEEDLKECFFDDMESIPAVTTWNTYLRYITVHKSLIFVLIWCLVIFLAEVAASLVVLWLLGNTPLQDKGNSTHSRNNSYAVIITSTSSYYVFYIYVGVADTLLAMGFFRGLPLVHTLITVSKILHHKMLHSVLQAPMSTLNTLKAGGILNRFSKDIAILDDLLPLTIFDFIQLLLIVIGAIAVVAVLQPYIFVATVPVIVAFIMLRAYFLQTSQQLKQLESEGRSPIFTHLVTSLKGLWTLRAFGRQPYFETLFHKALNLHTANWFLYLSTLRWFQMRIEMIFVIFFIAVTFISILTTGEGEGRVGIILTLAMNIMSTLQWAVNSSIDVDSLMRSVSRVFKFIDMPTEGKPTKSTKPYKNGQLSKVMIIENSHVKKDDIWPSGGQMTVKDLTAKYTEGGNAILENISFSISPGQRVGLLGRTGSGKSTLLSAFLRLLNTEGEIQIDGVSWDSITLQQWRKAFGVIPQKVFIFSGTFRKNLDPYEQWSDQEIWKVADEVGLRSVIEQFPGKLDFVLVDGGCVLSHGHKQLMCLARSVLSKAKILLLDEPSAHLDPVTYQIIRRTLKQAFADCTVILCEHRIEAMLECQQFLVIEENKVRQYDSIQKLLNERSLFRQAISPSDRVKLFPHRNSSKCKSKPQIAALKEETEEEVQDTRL
SMILES,EC50 [1] [µM],EC50 [2] [µM],Maximum % activity (with co-corrector),Maximum % activity (without co-corrector)
"COc1ncc(C(F)(F)F)cc1CO[C@H]1[C@H](C(C)(C)C)[C@@H](C(=O)O)N(C(=O)[C@@H]2CCCCO2)[C@H]1c1ccccc1Br [Example 178, (2S,3R,4S,5S)-5-(2-bromophenyl)-3-tert-butyl-4-{[2-methoxy-5-(trifluoromethyl)pyridin-3-yl]methoxy}-1-[(2S)-oxane-2-carbonyl]pyrrolidine-2-carboxylic acid]",1 to 10,1 to 10,+++ (≥350),++ (≥100 and <200)
"CCc1ccccc1[C@H]1[C@@H](OCc2cc(C(F)(F)F)cnc2OC)[C@H](C(C)(C)C)[C@@H](C(=O)O)N1C(=O)[C@@H]1CCCCO1 [Example 179, (2S,3R,4S,5S)-3-tert-butyl-5-(2-ethylphenyl)-4-{[2-methoxy-5-(trifluoromethyl)pyridin-3-yl]methoxy}-1-[(2S)-oxane-2-carbonyl]pyrrolidine-2-carboxylic acid]",< 1,< 1,+++ (≥350),+++ (≥200)
"COc1ncc(C(F)(F)F)cc1CO[C@H]1[C@H](C(C)(C)C)[C@@H](C(=O)O)N(C(=O)[C@@H]2CCCCO2)[C@H]1c1ccccc1-c1ccccc1 [Example 180, (2S,3R,4S,5S)-5-([1,1′-biphenyl]-2-yl)-3-tert-butyl-4-{[2-methoxy-5-(trifluoromethyl)pyridin-3-yl]methoxy}-1-[(2S)-oxane-2-carbonyl]pyrrolidine-2-carboxylic acid]",< 1,< 1,+++ (≥350),+++ (≥200)
"COc1ncc(C(F)(F)F)cc1CO[C@H]1[C@H](C(C)(C)C)[C@@H](C(=O)O)N(C(=O)[C@@H]2CCCCO2)[C@H]1c1ccccc1-c1ccc(=O)n(C)c1 [Example 181, (2S,3R,4S,5S)-3-tert-butyl-4-{[2-methoxy-5-(trifluoromethyl)pyridin-3-yl]methoxy}-5-[2-(1-methyl-6-oxo-1,6-dihydropyridin-3-yl)phenyl]-1-[(2S)-oxane-2-carbonyl]pyrrolidine-2-carboxylic acid]",> 10,1 to 10,++ (≥150 and <350),+ (<100)
"COc1ncc(C2CCC2)cc1CO[C@H]1[C@H](C(C)(C)C)[C@@H](C(=O)O)N(C(=O)C2CCCCC2)[C@H]1c1ccccc1C1CC1 [Example 182, (2S,3R,4S,5S)-3-tert-butyl-4-[(5-cyclobutyl-2-methoxypyridin-3-yl)methoxy]-1-(cyclohexanecarbonyl)-5-(2-cyclopropylphenyl)pyrrolidine-2-carboxylic acid]",1 to 10,< 1,+++ (≥350),+++ (≥200)
"COc1ncc(C2CCC2)cc1CO[C@H]1[C@H](C(C)(C)C)[C@@H](C(=O)O)N(C(=O)C2CCCCC2)[C@H]1c1ccccc1Br [Example 183, (2S,3R,4S,5S)-5-(2-bromophenyl)-3-tert-butyl-4-[(5-cyclobutyl-2-methoxypyridin-3-yl)methoxy]-1-(cyclohexanecarbonyl)pyrrolidine-2-carboxylic acid]",1 to 10,1 to 10,+++ (≥350),++ (≥100 and <200)
"CCc1ccccc1[C@H]1[C@@H](OCc2ccc(C(F)(F)F)cc2OC)[C@H](C(C)(C)C)[C@@H](C(=O)O)N1C(=O)[C@@H]1CCCCO1 [Example 184, (2S,3R,4S,5S)-3-tert-butyl-5-(2-ethylphenyl)-4-{[2-methoxy-4-(trifluoromethyl)phenyl]methoxy}-1-[(2S)-oxane-2-carbonyl]pyrrolidine-2-carboxylic acid]",< 1,< 1,+++ (≥350),+++ (≥200)
"CCc1ccccc1[C@H]1[C@@H](OCc2cc(C3CCC3)cnc2OC)[C@H](C(C)(C)C)[C@@H](C(=O)O)N1C(=O)[C@@H]1CCCCO1 [Example 185, (2S,3R,4S,5S)-3-tert-butyl-4-[(5-cyclobutyl-2-methoxypyridin-3-yl)methoxy]-5-(2-ethylphenyl)-1-[(2S)-oxane-2-carbonyl]pyrrolidine-2-carboxylic acid]",1 to 10,< 1,+++ (≥350),+++ (≥200)
"COc1ccc(C(C)(C)C#N)cc1CO[C@H]1[C@H](C(C)(C)C)[C@@H](C(=O)O)N(C(=O)[C@@H]2CCCCO2)[C@H]1c1ccccc1C [Example 187, (2S,3R,4S,5S)-3-tert-butyl-4-{[5-(2-cyanopropan-2-yl)-2-methoxyphenyl]methoxy}-5-(2-methylphenyl)-1-[(2S)-oxane-2-carbonyl]pyrrolidine-2-carboxylic acid]",1 to 10,< 1,+++ (≥350),+++ (≥200)
"COc1ccc(C(C)(C)C)cc1CO[C@H]1[C@H](C(C)(C)C)[C@@H](C(=O)O)N(C(=O)[C@@H]2CCCCO2)[C@H]1c1ccccc1C [Example 188, (2S,3R,4S,5S)-3-tert-butyl-4-[(5-tert-butyl-2-methoxyphenyl)methoxy]-5-(2-methylphenyl)-1-[(2S)-oxane-2-carbonyl]pyrrolidine-2-carboxylic acid]",< 1,< 1,+++ (≥350),+++ (≥200)
"COc1nc2ccccc2cc1CO[C@H]1[C@H](C(C)(C)C)[C@@H](C(=O)O)N(C(=O)[C@@H]2CCCCO2)[C@H]1c1ccccc1C [Example 189, (2S,3R,4S,5S)-3-tert-butyl-4-[(2-methoxyquinolin-3-yl)methoxy]-5-(2-methylphenyl)-1-[(2S)-oxane-2-carbonyl]pyrrolidine-2-carboxylic acid]",1 to 10,1 to 10,+++ (≥350),+++ (≥200)
"COc1ncc(C(F)(F)F)cc1CO[C@H]1[C@H](C(C)(C)C)[C@@H](C(=O)O)N(C(=O)[C@@H]2CCCCO2)[C@H]1c1ccccc1-c1ccc(F)cc1 [Example 190, (2S,3R,4S,5S)-3-tert-butyl-5-(4′-fluoro[1,1′-biphenyl]-2-yl)-4-{[2-methoxy-5-(trifluoromethyl)pyridin-3-yl]methoxy}-1-[(2S)-oxane-2-carbonyl]pyrrolidine-2-carboxylic acid]",1 to 10,1 to 10,+++ (≥350),+++ (≥200)
"COc1ncc(C(F)(F)F)cc1CO[C@H]1[C@H](C(C)(C)C)[C@@H](C(=O)O)N(C(=O)[C@@H]2CCCCO2)[C@H]1c1ccccc1-c1cccc(Cl)c1 [Example 191, (2S,3R,4S,5S)-3-tert-butyl-5-(3′-chloro[1,1′-biphenyl]-2-yl)-4-{[2-methoxy-5-(trifluoromethyl)pyridin-3-yl]methoxy}-1-[(2S)-oxane-2-carbonyl]pyrrolidine-2-carboxylic acid]",1 to 10,1 to 10,+++ (≥350),+++ (≥200)
"COc1ncc(C(F)(F)F)cc1CO[C@H]1[C@H](C(C)(C)C)[C@@H](C(=O)O)N(C(=O)[C@@H]2CCCCO2)[C@H]1c1ccccc1C1=CCN(C)CC1 [Example 192, (2S,3R,4S,5S)-3-tert-butyl-4-{[2-methoxy-5-(trifluoromethyl)pyridin-3-yl]methoxy}-5-[2-(1-methyl-1,2,3,6-tetrahydropyridin-4-yl)phenyl]-1-[(2S)-oxane-2-carbonyl]pyrrolidine-2-carboxylic acid]",1 to 10,1 to 10,++ (≥150 and <350),+ (<100)
"COc1ncc(C(F)(F)F)cc1CO[C@H]1[C@H](C(C)(C)C)[C@@H](C(=O)O)N(C(=O)[C@@H]2CCCCO2)[C@H]1c1ccccc1-c1cnn(C)c1 [Example 193, (2S,3R,4S,5S)-3-tert-butyl-4-{[2-methoxy-5-(trifluoromethyl)pyridin-3-yl]methoxy}-5-[2-(1-methyl-1H-pyrazol-4-yl)phenyl]-1-[(2S)-oxane-2-carbonyl]pyrrolidine-2-carboxylic acid]",1 to 10,1 to 10,+++ (≥350),++ (≥100 and <200)
"COc1ncc(C(F)(F)F)cc1CO[C@H]1[C@H](C(C)(C)C)[C@@H](C(=O)O)N(C(=O)[C@@H]2CCCCO2)[C@H]1c1ccccc1-c1cccc(N(C)C)c1 [Example 194, (2S,3R,4S,5S)-3-tert-butyl-5-[3′-(dimethylamino) [1,1′-biphenyl]-2-yl]-4-{[2-methoxy-5-(trifluoromethyl)pyridin-3-yl]methoxy}-1-[(2S)-oxane-2-carbonyl]pyrrolidine-2-carboxylic acid]",1 to 10,< 1,+++ (≥350),+++ (≥200)
